Results: article PMC11676189, “Improving the Anti-Tumor Effect of Indoleamine 2,3-Dioxygenase Inhibitor CY1-4 by CY1-4 Nano-Skeleton Drug Delivery System” (Journal of Functional Biomaterials, 2024)
≈ marks a conversion by molar mass, not a printed value. Values belong to the compound of their own block, whether it stands above or below them.

How the values were obtained:
[1] = In vitro dissolution of CY1-4 in artificial gastric fluid (pH 1.2) and artificial intestinal fluid (pH 6.8); assay type: physicochemical
Procedure: MSNM@CY1-4 (equivalent to 3 mg of CY1-4) was dispersed in 600 mL artificial gastric fluid (pH 1.2 containing 0.1% (v/v) Tween-80) or 600 mL artificial intestinal fluid (pH 6.8 containing 0.1% (v/v) Tween-80) at 37 °C and 100 rpm. Samples were taken at 0, 2, 5, 12, 20, 40, and 60 min. Each sample was filtered through a 0.22 μm filter membrane and determined by HPLC.

[2] = Solubility of CY1-4 (excess sample shaken in a 37 °C water bath for 48 h, HPLC); assay type: physicochemical; conditions: thermodynamic from solid
Procedure: The excess MSNM@CY1-4 was placed in deionized water and was shaken in a 37 °C water bath for 48 h. The supernatant was filtered after centrifugation at 10,000 rpm, and the filtrate was collected. The CY1-4 was measured using HPLC to calculate the solubility of CY1-4.

[3] = parameters: method as in PMID 28053021; conditions: cited from earlier work
[4] = tested on: unresectable metastatic melanoma; conditions: combined with Keytruda vs Keytruda alone; phase III, 2018; cited from earlier work
[5] = tested on: recurrent malignant glioma; parameters: method as in PMID 32436060; conditions: up to 500 mg BID; patients with recurrent malignant glioma; cited from earlier work

CY1-4 dissolved ([1]; artificial gastric fluid pH 1.2, 5 min): about 6% | CY1-4 dissolved after the 5 min maximum (decreased to) ([1]; artificial gastric fluid pH 1.2, after 5 min): about 1% | CY1-4 dissolved ([1]; artificial intestinal fluid pH 6.8, 5 min): about 4% | CY1-4 dissolved after the 5 min maximum (decreased to) ([1]; artificial intestinal fluid pH 6.8, after 5 min): about 1% | solubility at 48 h ([2]; deionized water, water): < 100 µg/mL | solubility at 48 h ([2]; deionized water, water, 48 h): 1.16 ± 0.08 µg/mL (≈ 3.94 µM) | solubility at 48 h ([2]; pH 1.2 medium, pH 1.2, simulated gastric fluid, pH = 1.2): 1.36 ± 0.04 µg/mL (≈ 4.62 µM) | solubility at 48 h ([2]; pH 6.8 medium, pH 6.8, aqueous buffer, pH = 6.8): 1.19 ± 0.09 µg/mL (≈ 4.04 µM)
SMILES: O=C1c2cc([N+](=O)[O-])ccc2-n2c1nc1ncccc1c2=O [CY1-4, 9-nitropyridine [2′,3′:4,5] pyrimido [1,2-α] indole-5,11-dione]

SMILES: NS(=O)(=O)NCCNc1nonc1C(=NO)Nc1ccc(F)c(Br)c1 [Epacadostat]
Tolerability [3]: well tolerated | Inhibition of IDO1 activity ([3]; dose of ≥100 mg BID): could effectively inhibit the activity of IDO1 | Progression-free survival [4]: failed to significantly improve the progression-free survival

SMILES: O=C1CC(c2c[nH]c3ccc(F)cc23)C(=O)N1 (stereo not drawn) [PF-06840003]
Tolerability [5]: generally well tolerated
